In the supplement of paper PMC4628005:

Experiments:
Conditions in all cases: drug exposure time: 96 h
Sirolimus = compound: CO[C@H]1C[C@@H]2CC[C@@H](C)[C@@](O)(O2)C(=O)C(=O)N2CCCC[C@H]2C(=O)O[C@H]([C@H](C)C[C@@H]2CC[C@@H](O)[C@H](OC)C2)CC(=O)[C@H](C)/C=C(\C)[C@@H](O)[C@@H](OC)C(=O)[C@H](C)C[C@H](C)/C=C/C=C/C=C/1C [Sirolimus]
Protocol: (§1)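 Same SRB 96 h IC50 screen on breast cancer cell lines (RPMI 1640 + 10% FBS, collagen I-coated 96-well plates, triplicates, 12 dilutions), for drugs with a different dose range: Bortezomib up to 2e-5 M; Sirolimus and 17-AAG up to 2e-6 M. Sirolimus values at the 2e-6 M top dose are censored.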

17-AAG = compound: C=CCNC1=C2C[C@@H](C)C[C@H](OC)[C@H](O)[C@@H](C)/C=C(\C)[C@H](OC(N)=O)[C@@H](OC)/C=C\C=C(/C)C(=O)NC(=CC1=O)C2=O [17-AAG]
Protocol: as §1

Bortezomib = compound: CC(C)C[C@H](NC(=O)[C@H](Cc1ccccc1)NC(=O)c1cnccn1)B(O)O [Bortezomib]
Protocol: as §1

Docetaxel = compound: CC(=O)O[C@@]12CO[C@@H]1C[C@H](O)[C@@]1(C)C(=O)[C@H](O)C3=C(C)[C@@H](OC(=O)[C@H](O)[C@@H](NC(=O)OC(C)(C)C)c4ccccc4)C[C@@](O)([C@@H](OC(=O)c4ccccc4)[C@H]21)C3(C)C [Docetaxel]
Protocol: (§2)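 Breast cancer cell lines were grown in RPMI 1640 with 10% FBS on collagen I-coated 96-well plates and treated for 96 h (from 24 h after seeding) with 12 dilutions per drug, in triplicate. Growth was read by sulforhodamine B total-protein staining (absorbance 570 nm) relative to diluent control, and IC50 was calculated. The top dose was 1e-5 M for most drugs; Bortezomib went to 2e-5 M and Sirolimus and 17-AAG to 2e-6 M[…].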

Tamoxifen = compound: CC/C(=C(\c1ccccc1)c1ccc(OCCN(C)C)cc1)c1ccccc1 [Tamoxifen]
Protocol: as §2

Sorafenib = compound: CNC(=O)c1cc(Oc2ccc(NC(=O)Nc3ccc(Cl)c(C(F)(F)F)c3)cc2)ccn1 [Sorafenib]
Protocol: as §2

Paclitaxel = compound: CC(=O)O[C@H]1C(=O)[C@@]2(C)[C@H]([C@H](OC(=O)c3ccccc3)[C@]3(O)C[C@H](OC(=O)[C@H](O)[C@@H](NC(=O)c4ccccc4)c4ccccc4)C(C)=C1C3(C)C)[C@]1(OC(C)=O)CO[C@@H]1C[C@@H]2O [Paclitaxel]
Protocol: as §2

Panobinostat = compound: Cc1[nH]c2ccccc2c1CCNCc1ccc(/C=C/C(=O)NO)cc1 [Panobinostat]
Protocol: as §2

Brivanib = compound: Cc1cc2c(F)c(Oc3ncnn4cc(OC[C@@H](C)O)c(C)c34)ccc2[nH]1 [Brivanib]
Protocol: as §2

Vandetanib = compound: COc1cc2/c(=N/c3ccc(Br)cc3F)nc[nH]c2cc1OCC1CCN(C)CC1 [Vandetanib]
Protocol: as §2

Gefitinib = compound: COc1cc2ncnc(Nc3ccc(F)c(Cl)c3)c2cc1OCCCN1CCOCC1 [Gefitinib]
Protocol: as §2

Cisplatin = compound: N.N.[Cl][Pt][Cl] [Cisplatin]
Protocol: as §2

Nutlin-3 = compound: COc1ccc(C2=N[C@@H](c3ccc(Cl)cc3)[C@@H](c3ccc(Cl)cc3)N2C(=O)N2CCNC(=O)C2)c(OC(C)C)c1 [Nutlin-3]
Protocol: as §2

Doxorubicin = compound: COc1cccc2c1C(=O)c1c(O)c3c(c(O)c1C2=O)C[C@@](O)(C(=O)CO)C[C@@H]3O[C@H]1C[C@H](N)[C@H](O)[C@H](C)O1 [Doxorubicin]
Protocol: as §2

Methotrexate = compound: CN(Cc1cnc2nc(N)nc(N)c2n1)c1ccc(C(=O)N[C@@H](CCC(=O)O)C(=O)O)cc1 [Methotrexate]
Protocol: as §2

Dasatinib = compound: Cc1nc(Nc2ncc(C(=O)Nc3c(C)cccc3Cl)s2)cc(N2CCN(CCO)CC2)n1 [Dasatinib]
Protocol: as §2

Tipifarnib = compound: Cn1cncc1[C@@](N)(c1ccc(Cl)cc1)c1ccc2c(c1)c(-c1cccc(Cl)c1)cc(=O)n2C [Tipifarnib]
Protocol: as §2

Vorinostat = compound: O=C(CCCCCCC(=O)Nc1ccccc1)NO [Vorinostat]
Protocol: as §2

Mitoxantrone = compound: O=C1c2c(O)ccc(O)c2C(=O)c2c(NCCNCCO)ccc(NCCNCCO)c21 [Mitoxantrone]
Protocol: as §2

MI-219 = compound: CC(C)(C)C[C@H]1N[C@@H](C(=O)NCC[C@H](O)CO)[C@H](c2cccc(Cl)c2)[C@@]12C(=O)Nc1cc(Cl)c(F)cc12 [MI-219]
Protocol: as §2

5-Fluorouracil = compound: O=c1[nH]cc(F)c(=O)[nH]1 [5-Fluorouracil]
Protocol: as §2

Lapatinib = compound: CS(=O)(=O)CCNCc1ccc(-c2ccc3ncnc(Nc4ccc(OCc5cccc(F)c5)c(Cl)c4)c3c2)o1 [Lapatinib]
Protocol: as §2

Azacitidine = compound: Nc1ncn([C@@H]2O[C@H](CO)[C@@H](O)[C@H]2O)c(=O)n1 [Azacitidine]
Protocol: as §2

Serdemetan = compound: c1ccc2c(CCNc3ccc(Nc4ccncc4)cc3)c[nH]c2c1 [Serdemetan]
Protocol: as §2

Erlotinib = compound: C#Cc1cccc(Nc2ncnc3cc(OCCOC)c(OCCOC)cc23)c1 [Erlotinib]
Protocol: as §2

Sunitinib = compound: CCN(CC)CCNC(=O)c1c(C)[nH]c(/C=C2\C(=O)Nc3ccc(F)cc32)c1C [Sunitinib]
Protocol: as §2

ARQ197 = compound: O=C1NC(=O)[C@@H](c2cn3c4c(cccc24)CCC3)[C@@H]1c1c[nH]c2ccccc12 [ARQ197]
Protocol: as §2

Quisinostat = compound: Cn1cc(CNCC2CCN(c3ncc(C(=O)NO)cn3)CC2)c2ccccc21 [Quisinostat]
Protocol: as §2

Belinostat = compound: O=C(/C=C/c1cccc(S(=O)(=O)Nc2ccccc2)c1)NO [Belinostat]
Protocol: as §2

Decitabine = compound: Nc1ncn([C@H]2C[C@H](O)[C@@H](CO)O2)c(=O)n1 [Decitabine]
Protocol: as §2

| Test System | IC50 (SRB growth assay) (Sirolimus) | IC50 (SRB growth assay) (17-AAG) | IC50 (SRB growth assay) (Bortezomib) | IC50 (SRB growth assay) (Docetaxel) | IC50 (SRB growth assay) (Tamoxifen) | IC50 (SRB growth assay) (Sorafenib) | IC50 (SRB growth assay) (Paclitaxel) | IC50 (SRB growth assay) (Panobinostat) | IC50 (SRB growth assay) (Brivanib) | IC50 (SRB growth assay) (Vandetanib) | IC50 (SRB growth assay) (Gefitinib) | IC50 (SRB growth assay) (Cisplatin) | IC50 (SRB growth assay) (Nutlin-3) | IC50 (SRB growth assay) (Doxorubicin) | IC50 (SRB growth assay) (Methotrexate) | IC50 (SRB growth assay) (Dasatinib) | IC50 (SRB growth assay) (Tipifarnib) | IC50 (SRB growth assay) (Vorinostat) | IC50 (SRB growth assay) (Mitoxantrone) | IC50 (SRB growth assay) (MI-219) | IC50 (SRB growth assay) (5-Fluorouracil) | IC50 (SRB growth assay) (Lapatinib) | IC50 (SRB growth assay) (Azacitidine) | IC50 (SRB growth assay) (Serdemetan) | IC50 (SRB growth assay) (Erlotinib) | IC50 (SRB growth assay) (Sunitinib) | IC50 (SRB growth assay) (ARQ197) | IC50 (SRB growth assay) (Quisinostat) | IC50 (SRB growth assay) (Belinostat) | IC50 (SRB growth assay) (Decitabine) |
| --- | --- | --- | --- | --- | --- | --- | --- | --- | --- | --- | --- | --- | --- | --- | --- | --- | --- | --- | --- | --- | --- | --- | --- | --- | --- | --- | --- | --- | --- | --- |
| HCC 1500 | 0.274 nM | 905 nM | 5.55 nM | 0.745 nM | > 10000 nM | 6090 nM | 3.44 nM | 12.8 nM | > 10000 nM | 1280 nM | 679 nM | > 10000 nM | 2670 nM | 40.3 nM | > 10000 nM | 959 nM | 1050 nM | 987 nM | 30.6 nM | 1070 nM | 3930 nM | 529 nM | 2330 nM | 1960 nM | 617 nM | 8230 nM | 197 nM | 9.34 nM | 367 nM | 6210 nM |
| HCC 1569 | 0.355 nM | 90 nM | 5.08 nM | 7.63 nM | 5680 nM | 4350 nM | 66.2 nM | 14.4 nM | > 10000 nM | 2070 nM | 7430 nM | > 10000 nM | > 10000 nM | 42.1 nM | > 10000 nM | 381 nM | 938 nM | 1070 nM | 31.4 nM | > 10000 nM | 8210 nM | 857 nM | 2620 nM | 1800 nM | 3240 nM | 6490 nM | 619 nM | 7.46 nM | 521 nM | > 10000 nM |
| HCC 1806 | > 2000 nM | 53.6 nM | 5.96 nM | 0.597 nM | 5990 nM | 5250 nM | 1.97 nM | 15.8 nM | > 10000 nM | 580 nM | 513 nM | > 10000 nM | > 10000 nM | 20.8 nM | 2.99 nM | 178 nM | 263 nM | 632 nM | 20.1 nM | > 10000 nM | 5080 nM | 589 nM | > 10000 nM | 826 nM | 327 nM | 4990 nM | 501 nM | 8.95 nM | 216 nM | 1190 nM |
| HCC 1954 | 0.0308 nM | 26.4 nM | 5.29 nM | 0.37 nM | 5420 nM | 5510 nM | 1.37 nM | 9.53 nM | 5340 nM | 894 nM | 435 nM | > 10000 nM | > 10000 nM | 11.1 nM | 10.2 nM | 2290 nM | 449 nM | 452 nM | 8.2 nM | > 10000 nM | 2490 nM | 182 nM | 807 nM | 1280 nM | 361 nM | 5340 nM | 205 nM | 7.36 nM | 142 nM | 1650 nM |
| Hs 578T | 0.946 nM | 49.4 nM | 5.74 nM | 0.796 nM | > 10000 nM | 6640 nM | 1.88 nM | 18.5 nM | > 10000 nM | 5710 nM | > 10000 nM | > 10000 nM | > 10000 nM | 57.7 nM | 26 nM | 1360 nM | 3930 nM | 999 nM | 16.8 nM | > 10000 nM | > 10000 nM | > 10000 nM | 5800 nM | 2550 nM | > 10000 nM | 7020 nM | 696 nM | 12.7 nM | 543 nM | > 10000 nM |
| MCF 7 | 58.2 nM | 93.4 nM | 8.35 nM | 1.12 nM | 5690 nM | 5100 nM | 1.79 nM | 12 nM | > 10000 nM | > 10000 nM | > 10000 nM | > 10000 nM | 2010 nM | 8.94 nM | 13.9 nM | > 10000 nM | 28.6 nM | 783 nM | 14.8 nM | 815 nM | 2210 nM | 4000 nM | 3730 nM | 1690 nM | > 10000 nM | 4470 nM | 260 nM | 5.75 nM | 419 nM | 472 nM |
| MDA-MB 361 | 0.259 nM | 41.4 nM | 6.68 nM | 1.41 nM | 8840 nM | 5770 nM | 4.81 nM | 8.08 nM | > 10000 nM | 4370 nM | 4600 nM | > 10000 nM | > 10000 nM | 67 nM | 729 nM | 6020 nM | 2210 nM | 723 nM | 25.9 nM | > 10000 nM | > 10000 nM | 499 nM | > 10000 nM | 3950 nM | 3870 nM | > 10000 nM | 417 nM | 3.95 nM | 469 nM | > 10000 nM |
